Laboratory results published in patent US10208000B2, “Eis inhibitors” (priority 2015, dated 2019).

Assays:
K204 Mtb = format: cell-based, Mycobacterium tuberculosis; details: for K204 MICKAN: KAN MIC in presence of compound at concentration tested (100x IC50 or 20 μM), KAN line = absence of compound
H37Rv Mtb = assay: Mycobacterial MIC determination by alamar blue assay, KAN with sulfonyl isothiazoles; format: cell-based, Mycobacterium tuberculosis; details: KAN MIC in presence of compound at concentration tested (100x IC50 or 20 μM); KAN line = absence of compound
Mtb K204 = format: cell-based, Mycobacterium tuberculosis
[1] = target: Eis_Mtb acetyltransferase (Mycobacterium tuberculosis (strain ATCC 25618 / H37Rv), UniProt P9WFK7); format: biochemical; details: library compounds 20 μM
AAC(3)-IV [2] = assay: Inhibitor selectivity, sulfonamides; format: biochemical, E. coli; details: concentrations as high as 200 μM
Description: (§1) To examine the selectivity of our two best inhibitors (39 and 46) towards Eis, next these two compounds were tested against three other AAC enzymes: AAC(2′)-Ic from Mtb (17, 18), AAC(3)-IV from E. coli (19, 20), and AAC(6′)-Ie/APH(2″)-Ia from Staphylococcus aureus (21, 22).
(§2) The conditions utilized for determination of IC50 values were also used here under the optimum conditions for each enzyme. […] AAC(6′)-Ie/APH(2″)-Ia experiments were incubated at 37° C. All other methods and concentrations are the same as for the experiments with Eis_Mtb.

AAC(2′)-Ic [3] = target: T1, AAC(2′)-Ic (Mycobacterium tuberculosis (strain ATCC 25618 / H37Rv), UniProt P9WQG9); assay: biochemical; design: species or system Mtb
AAC(6′)-Ie/APH(2″)-Ia [4] = target: T2, AAC(6′)-Ie/APH(2″)-Ia (Staphylococcus aureus, UniProt P0A0C1); assay: Inhibitor selectivity, sulfonamides; format: biochemical; details: concentrations as high as 200 μM
Description: as §1, §2

AAC(2′)-Ic [5] = target: T1, AAC(2′)-Ic
Description: The conditions described above for determination of IC50 values were used under the optimum conditions for each enzyme. […] AAC(6′)/APH(2″) experiments were incubated at 37° C. while AAC(3)-IV and AAC(2′)-Ic experiments were incubated at 25° C. All other methods and concentrations remained identical to those for the experiments with Eis.

AAC(3)-IV [6] = assay: Inhibitor selectivity, sulfonyl isothiazoles; format: biochemical, E. coli; details: optimal reaction conditions for the enzyme
AAC(6′)-Ie/APH(2″)-Ia [7] = target: T2, AAC(6′)-Ie/APH(2″)-Ia; assay: Inhibitor selectivity, sulfonyl isothiazoles; format: biochemical; details: optimal reaction conditions for the enzyme
Mtb H37Rv = assay: Mycobacterial MIC determination by alamar blue, KAN with sulfonamides; format: cell-based, Mycobacterium tuberculosis; details: anti-TB activity of KAN against Mtb H37Rv with compound; KAN line = KAN alone
purified Eis [8] = target: T3, purified Eis (Mycobacterium tuberculosis (strain ATCC 25618 / H37Rv), UniProt P9WFK7); details: read-out: IC50 (μM) in the Eis acetyltransferase assay
purified Eis [9] = target: T3, purified Eis; format: biochemical

Structure (SMILES)	K204 MICKAN (K204 Mtb)	H37Rv MICKAN (H37Rv Mtb)	also measured
CC1=C(c2ccc(C)c(C)c2)S(=O)(=O)N=C1NCCCN1CCN(C2CCCCC2)CC1 [Compound 17i]	5 µg/mL	0.625 to 1.25 µg/mL	
CC1=C(c2ccc(F)cc2)S(=O)(=O)N=C1NCCCN1CCCCC1 [Compound 6b]	2.5 µg/mL	0.625 µg/mL	
CC(C)c1ccc(N(C)S(=O)(=O)c2ccc3[nH]c(=O)c(=O)[nH]c3c2)cc1 [Compound 35]			K204 MICKAN (Mtb K204; anti-TB activity of KAN against Mtb K204 with compound, KAN line = KAN alone): 2.5 µg/mL
CC1=C(c2ccc(C)c(C)c2)S(=O)(=O)N=C1NCCN1CCOCC1 [Compound 35i]	2.5 µg/mL	0.625 µg/mL	
CCN(CC)C1=NS(=O)(=O)C(c2ccc(F)cc2)=C1C [Compound 81b]	2.5 to 5 µg/mL	0.625 µg/mL	
CN(c1ccc(Br)cc1)S(=O)(=O)c1ccc2[nH]c(=O)c(=O)[nH]c2c1 [Compound 29]			Eis inhibition in the HTS [1]: identified as hits; reduction of KAN MIC value compared to KAN alone (Mtb K204; K204 Mtb): four-fold
CCN1CCN(CCNC2=NS(=O)(=O)C(c3ccc(OC)cc3)=C2C)CC1 [Compound 37d]	5 to 10 µg/mL	0.625 to 1.25 µg/mL	
CC1=C(c2ccc(C)c(C)c2)S(=O)(=O)N=C1NCCCN1CCOCC1 [Compound 13i]	5 µg/mL	0.625 µg/mL	
CC1=C(c2ccc(C)cc2)S(=O)(=O)N=C1NCCCN1CCOCC1 [Compound 13e]	2.5 µg/mL	0.625 µg/mL	
CC1=C(c2cccc(Br)c2)S(=O)(=O)N=C1NCCN1CCOCC1 [Compound 35h]	2.5 µg/mL	0.625 µg/mL	
COc1ccc(C2=C(C)C(NCCN3CCN(C)CC3)=NS2(=O)=O)cc1 [Compound 36d]	2.5 to 5 µg/mL	0.625 µg/mL	
CCCNC1=NS(=O)(=O)C(c2ccc(C)c(C)c2)=C1C [Compound 139i]	10 µg/mL	1.25 µg/mL	
COc1cccc(N(C)S(=O)(=O)c2ccc3[nH]c(=O)c(=O)[nH]c3c2)c1 [Compound 39]			inhibition of KAN acetylation by AAC(3)-IV (AAC(3)-IV [2]): did not inhibit; inhibition at 200 µM (AAC(2′)-Ic [3]; read-out: inhibition of AAC(2′)-Ic activity): 15%; inhibition of KAN acetylation by AAC(6′)-Ie/APH(2″)-Ia (AAC(6′)-Ie/APH(2″)-Ia [4]): did not inhibit
CC1=C(c2ccc(C)c(C)c2)S(=O)(=O)N=C1N1CCC(C(=O)N2CCCC2)CC1 [Compound 52i]	2.5 µg/mL	0.625 µg/mL	
CC1=C(c2ccc(C)cc2)S(=O)(=O)N=C1NCCCN1CCCCCC1 [Compound 12e]	2.5 µg/mL	0.625 µg/mL	
CCN(CC)CCCNC1=NS(=O)(=O)C(c2ccc(C)c(C)c2)=C1C [Compound 3i]	1.25 µg/mL	0.625 µg/mL	reduction in KAN MIC against Mtb K204 (K204 Mtb): 8 fold
CC1=C(c2ccc(Cl)cc2)S(=O)(=O)N=C1N1CCC(N2CCCCC2)CC1 [Compound 46c]	2.5 µg/mL	0.625 µg/mL	inhibition of AAC(2′)-Ic (AAC(2′)-Ic [5]): no inhibition; inhibition of AAC(3)-IV (AAC(3)-IV [6]): no inhibition; inhibition of AAC(6′)-Ie/APH(2″)-Ia (AAC(6′)-Ie/APH(2″)-Ia [7]): no inhibition
CC1=C(c2ccccc2)S(=O)(=O)N=C1N1CCC(N2CCCCC2)CC1 [Compound 46a]	10 µg/mL	0.625 to 1.25 µg/mL	
CC1=C(c2ccccc2)S(=O)(=O)N=C1NCCN1CCCCC1 [Compound 33a]	5 µg/mL	0.625 µg/mL	
CCCN1CCN(CCCNC2=NS(=O)(=O)C(c3ccc(C)cc3)=C2C)CC1 [Compound 15e]	5 µg/mL	0.625 to 1.25 µg/mL	
CC1=C(c2ccc(F)cc2)S(=O)(=O)N=C1NCCCN1CCCCC1C (stereo not shown) [Compound 7b]	2.5 µg/mL	0.625 µg/mL	

Structure (SMILES)	K204 MICKAN (K204 Mtb)	H37Rv MICKAN (H37Rv Mtb)	also measured
CC1=C(c2cccc(Cl)c2)S(=O)(=O)N=C1NCCCN1CCOCC1 [Compound 13g]	2.5 to 5 µg/mL	0.625 µg/mL	
CC1=C(c2cccc(Cl)c2)S(=O)(=O)N=C1NCCN1CCOCC1 [Compound 35g]	2.5 µg/mL	0.625 µg/mL	
CN(c1ccc2ccccc2c1)S(=O)(=O)c1ccc2[nH]c(=O)c(=O)[nH]c2c1 [Compound 46]			inhibition of KAN acetylation by AAC(3)-IV (AAC(3)-IV [2]): did not inhibit; inhibition of KAN acetylation by AAC(2′)-Ic (AAC(2′)-Ic [3]): did not inhibit; inhibition of KAN acetylation by AAC(6′)-Ie/APH(2″)-Ia (AAC(6′)-Ie/APH(2″)-Ia [4]): did not inhibit; H37Rv MICKAN (Mtb H37Rv): ≤1.25 µg/mL
CC1=C(c2cccc(Br)c2)S(=O)(=O)N=C1N1CCC(N2CCCCC2)CC1 [Compound 46h]	5 µg/mL	0.625 µg/mL	
CCCN1CCN(CCCNC2=NS(=O)(=O)C(c3ccc(C(C)C)cc3)=C2C)CC1 [Compound 15f]	10 µg/mL	0.625 to 1.25 µg/mL	
CCCNC1=NS(=O)(=O)C(c2ccc(C)cc2)=C1C [Compound 139e]	10 µg/mL	1.25 µg/mL	
CC1=C(c2ccc(C)cc2)S(=O)(=O)N=C1NCCN1CCOCC1 [Compound 35e]	5 µg/mL	0.625 µg/mL	
CCN(CC)C1=NS(=O)(=O)C(c2cccc(Cl)c2)=C1C [Compound 81g]	2.5 µg/mL	0.625 µg/mL	
CC1=C(c2ccccc2)S(=O)(=O)N=C1NCCCN1CCOCC1 [Compound 13a]	2.5 µg/mL	0.625 µg/mL	
CCCNC1=NS(=O)(=O)C(c2ccc(F)cc2)=C1C [Compound 139b]	10 µg/mL	0.625 µg/mL	
CC1=C(c2ccc(Cl)cc2)S(=O)(=O)N=C1NCCCN1CCc2ccccc2C1 [Compound 11c]	1.25 µg/mL	0.625 µg/mL	reduction in KAN MIC against Mtb K204 (K204 Mtb): 8 fold
CC1=C(c2ccccc2)S(=O)(=O)N=C1NCCCN1CC(C)CC(C)C1 (stereo not shown) [Compound 8a]	5 µg/mL	0.625 to 1.25 µg/mL	
CC1=C(c2ccc(F)cc2)S(=O)(=O)N=C1NCc1ccccc1 [Compound 89b]	10 µg/mL	1.25 µg/mL	
NC[C@H]1O[C@H](O[C@H]2[C@H](O)[C@@H](O[C@H]3O[C@H](CO)[C@@H](O)[C@H](N)[C@H]3O)[C@H](N)C[C@@H]2N)[C@H](O)[C@@H](O)[C@@H]1O [KAN, kanamycin A, reference compound]	10 µg/mL	1.25 µg/mL	
CC1=C(c2ccc(F)cc2)S(=O)(=O)N=C1N1CCC(N2CCCCC2)CC1 [Compound 46b]	5 µg/mL	0.625 to 1.25 µg/mL	inhibition of AAC(2′)-Ic (AAC(2′)-Ic [5]): no inhibition; IC50 (purified Eis [8]): 0.092 ± 0.021 µM; inhibition of AAC(3)-IV (AAC(3)-IV [6]): no inhibition; inhibition of AAC(6′)-Ie/APH(2″)-Ia (AAC(6′)-Ie/APH(2″)-Ia [7]): no inhibition
CN(c1ccccc1)S(=O)(=O)c1ccc2[nH]c(=O)c(=O)[nH]c2c1 [Compound 33]			decrease in Eis inhibitory activity compared to lead 29 (purified Eis [9]): 70 fold
CC1=C(c2ccc(Cl)cc2)S(=O)(=O)N=C1NCCCN1CCN(C)CC1 [Compound 14c]	5 µg/mL	0.625 µg/mL	
CC1=C(c2ccc(C)cc2)S(=O)(=O)N=C1NCCCN1CC(C)CC(C)C1 (stereo not shown) [Compound 8e]	2.5 to 5 µg/mL	0.625 µg/mL	
CC1=C(c2ccc(C)c(C)c2)S(=O)(=O)N=C1NCC(=O)NCc1ccc2c(c1)OCO2 [Compound 115i]	10 µg/mL	0.625 µg/mL	
CCN1CCN(CCNC2=NS(=O)(=O)C(c3ccc(F)cc3)=C2C)CC1 [Compound 37b]	2.5 to 5 µg/mL	0.625 µg/mL	
CC1=C(c2ccc(F)cc2)S(=O)(=O)N=C1NCc1ccco1 [Compound 87b]	10 µg/mL	1.25 µg/mL	
